# Measurements taken from US11384055B2 (BIOMARIN PHARMACEUTICAL INC., priority 2017, dated 2022).
# Molecular target: T1, Human GO (Homo sapiens, UniProt Q9UJM8)
# T1 construct: purchased Novus Biologicals NBP1-72412
# T1 sequence (Q9UJM8 1-370): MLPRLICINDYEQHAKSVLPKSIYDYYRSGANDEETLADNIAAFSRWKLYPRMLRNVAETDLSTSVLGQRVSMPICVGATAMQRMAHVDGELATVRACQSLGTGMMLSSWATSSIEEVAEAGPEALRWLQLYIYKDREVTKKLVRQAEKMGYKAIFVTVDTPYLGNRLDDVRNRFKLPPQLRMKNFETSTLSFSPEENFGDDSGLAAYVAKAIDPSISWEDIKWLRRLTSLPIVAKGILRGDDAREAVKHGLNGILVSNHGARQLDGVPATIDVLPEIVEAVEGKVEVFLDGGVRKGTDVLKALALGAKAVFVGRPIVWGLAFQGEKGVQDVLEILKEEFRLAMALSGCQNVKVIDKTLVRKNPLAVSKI
# Assay: GO enzymatic assay (coupled fluorescence/HRP assay, glycolate substrate)
# Format: biochemical
# Settings: not given
# In short: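 Coupled HRP/fluorescence read-out of glycolate oxidation by human GO in 50 mM potassium phosphate buffer (pH 7). Inhibitors added across a concentration range.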
row,Structure (SMILES),IC50 [µM]
1,"CS(=O)(=O)c1ccc(-c2ccc(Oc3[nH]nnc3C(=O)O)cc2)cc1 [Compound 401, 4-((4′-(methylsulfonyl)-[1,1′-biphenyl]-4-yl)oxy)-1H-1,2,3-triazole-5-carboxylic acid 2,2,2-trifluoroacetate]",< 0.1

# Same assay, conditions: Table 2; read-out: Range (range of IC50 values calculated from the enzymatic assays)
row,Structure (SMILES),IC50 [µM]
1,"N#Cc1ccc([C@H]2CC[C@@H](Sc3nn[nH]c3C(=O)O)CC2)cc1 [Compound 352, 4-(((cis)-4-(4-cyanophenyl)cyclohexyl)thio)-1H-1,2,3-triazole-5-carboxylic acid]",< 0.1
2,"O=C(O)c1[nH]nnc1Oc1ccc(Cl)c(OCC2CCCC2)c1 [Compound 353, 4-(4-chloro-3-(cyclopentylmethoxy)phenoxy)-1H-1,2,3-triazole-5-carboxylic acid 2,2,2-trifluoroacetate]",< 0.1
3,"O=C(O)c1[nH]nnc1OC1CCN(c2cc(Cl)cc(OC(F)(F)F)c2)CC1 [Compound 354, 4-((1-(3-chloro-5-(trifluoromethoxy)phenyl)piperidin-4-yl)oxy)-1H-1,2,3-triazole-5-carboxylic acid]",< 0.1
4,"O=C(O)c1[nH]nnc1O[C@H]1CC[C@@H](c2cc(Cl)cc(OC(F)(F)F)c2)CC1 [Compound 355, 4-(((cis)-4-(3-chloro-5-(trifluoromethoxy)phenyl)cyclohexyl)oxy)-1H-1,2,3-triazole-5-carboxylic acid]",< 0.1
5,"O=C(O)c1[nH]nnc1O[C@H]1CC[C@@H](c2ccc(N3CCCC3)cc2)CC1 [Compound 356, 4-(((cis)-4-(4-(pyrrolidin-1-yl)phenyl)cyclohexyl)oxy)-1H-1,2,3-triazole-5-carboxylic acid 2,2,2-trifluoroacetate]",< 0.1
6,"O=C(O)c1[nH]nnc1Oc1cc(OCC2CCCC2)ccc1Cl [Compound 357, 4-(2-chloro-5-(cyclopentylmethoxy)phenoxy)-1H-1,2,3-triazole-5-carboxylic acid]",< 0.1
7,"O=C(O)c1[nH]nnc1Oc1cc(Cl)cc(OC(F)(F)F)c1 [Compound 358, 4-(3-chloro-5-(trifluoromethoxy)phenoxy)-1H-1,2,3-triazole-5-carboxylic acid]",< 0.1
8,"N#Cc1ccc(N2CCC(Oc3nn[nH]c3C(=O)O)CC2)cc1 [Compound 359, 4-((1-(4-cyanophenyl)piperidin-4-yl)oxy)-1H-1,2,3-triazole-5-carboxylic acid 2,2,2-trifluoroacetate]",< 0.1
9,"O=C(O)c1[nH]nnc1O[C@H]1CC[C@@H](c2ccc(OC(F)(F)F)c(Cl)c2)CC1 [Compound 360, 4-(((cis)-4-(3-chloro-4-(trifluoromethoxy)phenyl)cyclohexyl)oxy)-1H-1,2,3-triazole-5-carboxylic acid]",< 0.1
10,"O=C(O)c1[nH]nnc1OC1CCN(c2ccc(OC(F)(F)F)c(Cl)c2)CC1 [Compound 361, 4-((1-(3-chloro-4-(trifluoromethoxy)phenyl)piperidin-4-yl)oxy)-1H-1,2,3-triazole-5-carboxylic acid]",< 0.1
11,"O=C(O)c1[nH]nnc1Oc1ccc(Cl)c(OCc2ccc(F)cc2)c1 [Compound 362, 4-(4-chloro-3-((4-fluorobenzyl)oxy)phenoxy)-1H-1,2,3-triazole-5-carboxylic acid]",< 0.1
12,"NC(=O)c1ccc([C@H]2CC[C@@H](Oc3nn[nH]c3C(=O)O)CC2)cc1 [Compound 363, 4-(((cis)-4-(4-carbamoylphenyl)cyclohexyl)oxy)-1H-1,2,3-triazole-5-carboxylic acid 2,2,2-trifluoroacetate]",< 0.1
13,"NC(=O)c1ccc([C@H]2CC[C@H](Oc3nn[nH]c3C(=O)O)CC2)cc1 [Compound 364, 4-(((trans)-4-(4-carbamoylphenyl)cyclohexyl)oxy)-1H-1,2,3-triazole-5-carboxylic acid 2,2,2-trifluoroacetate]",< 0.1
14,"N#Cc1ccc([C@H]2CC[C@@H](Oc3nn[nH]c3C(=O)O)CC2)cc1 [Compound 365, 4-(((cis)-4-(4-cyanophenyl)cyclohexyl)oxy)-1H-1,2,3-triazole-5-carboxylic acid]",< 0.1
15,"O=C(O)c1[nH]nnc1OC1CCN(c2cc(Cl)ccc2OC(F)(F)F)CC1 [Compound 367, 4-((1-(5-chloro-2-(trifluoromethoxy)phenyl)piperidin-4-yl)oxy)-1H-1,2,3-triazole-5-carboxylic acid 2,2,2-trifluoroacetate]",< 0.1
16,"O=C(O)c1[nH]nnc1O[C@H]1CC[C@@H](c2ccc(N3CCC(F)(F)CC3)cc2)CC1 [Compound 368, 4-(((cis)-4-(4-(4,4-difluoropiperidin-1-yl)phenyl)cyclohexyl)oxy)-1H-1,2,3-triazole-5-carboxylic acid 2,2,2-trifluoroacetate]",< 0.1
17,"O=C(O)c1[nH]nnc1OCC1C2CN(c3ccc(Cl)c(Cl)c3)CC12 (stereo not drawn) [Compound 369, 4-((3-(3,4-dichlorophenyl)-3-azabicyclo[3.1.0]hexan-6-yl)methoxy)-1H-1,2,3-triazole-5-carboxylic acid]",< 0.1
18,"CCN(CC)C(=O)OCOC(=O)c1[nH]nnc1O[C@H]1CC[C@H](c2ccc(OC(F)(F)F)cc2)CC1 [Compound 370, ((diethylcarbamoyl)oxy)methyl 4-(((trans)-4-(4-(trifluoromethoxy)phenyl)cyclohexyl)oxy)-1H-1,2,3-triazole-5-carboxylate]",> 10
19,"O=C(O)c1[nH]nnc1SCC1C2CN(c3ccc(Cl)c(Cl)c3)CC12 (stereo not drawn) [Compound 373, 4-(((3-(3,4-dichlorophenyl)-3-azabicyclo[3.1.0]hexan-6-yl)methyl)thio)-1H-1,2,3-triazole-5-carboxylic acid]",< 0.1
20,"O=C(O)c1[nH]nnc1Oc1cccc(OC2CCCC2)c1 [Compound 375, 4-(3-(cyclopentyloxy)phenoxy)-1H-1,2,3-triazole-5-carboxylic acid 2,2,2-trifluoroacetate]",< 0.1

# Same assay, conditions: Table 3; read-out: Range (range of IC50 values calculated from the enzymatic assays)
row,Structure (SMILES),IC50 [µM]
1,"O=C(O)c1[nH]nnc1OC(Cc1ccc(-c2ccc(OC(F)(F)F)cc2)cc1)Cc1ccc(-c2ccc(OC(F)(F)F)cc2)cc1 [Compound 366, 4-((1,3-bis(4′-(trifluoromethoxy)-[1,1′-biphenyl]-4-yl)propan-2-yl)oxy)-1H-1,2,3-triazole-5-carboxylic acid]",0.1 to 1
2,"O=C(O)c1[nH]nnc1CCN(Cc1ccc(Cl)cc1)Cc1ccc(Cl)cc1 [Compound 372, 4-(2-(bis(4-chlorobenzyl)amino)ethyl)-1H-1,2,3-triazole-5-carboxylic acid 2,2,2-trifluoroacetate]",0.1 to 1
3,"O=C(O)c1[nH]nnc1CCN(Cc1ccc(Cl)cc1)Cc1ccc(-c2ccc(OC(F)(F)F)cc2)cc1 [Compound 374, 4-(2-((4-chlorobenzyl)((4′-(trifluoromethoxy)-[1,1′-biphenyl]-4-yl)methyl)amino)ethyl)-1H-1,2,3-triazole-5-carboxylic acid 2,2,2-trifluoroacetate]",0.1 to 1

# Same assay, conditions: Table 4; read-out: Range (range of IC50 values calculated from the enzymatic assays)
row,Structure (SMILES),IC50 [µM]
1,"O=C(O)c1[nH]nnc1OC(c1ccccc1)C(O)c1ccc(Cl)cc1 (stereo not drawn) [Compound 378, 4-(2-(4-chlorophenyl)-2-hydroxy-1-phenylethoxy)-1H-1,2,3-triazole-5-carboxylic acid]",0.1 to 1
2,"N#Cc1ccc(-c2ccc(Sc3nn[nH]c3C(=O)O)cc2)cc1 [Compound 389, 4-((4′-cyano-[1,1′-biphenyl]-4-yl)thio)-1H-1,2,3-triazole-5-carboxylic acid 2,2,2-trifluoroacetate]",< 0.1
3,"CC(OC(=O)c1[nH]nnc1O[C@H]1CC[C@H](c2ccc(OC(F)(F)F)cc2)CC1)OC(=O)C1CCCCC1 (stereo partly drawn) [Compound 391, 1-((cyclohexanecarbonyl)oxy)ethyl 4-(((trans)-4-(4-(trifluoromethoxy)phenyl)cyclohexyl)oxy)-1H-1,2,3-triazole-5-carboxylate]",0.1 to 1
4,"CCC(OC(=O)c1[nH]nnc1O[C@H]1CC[C@H](c2ccc(OC(F)(F)F)cc2)CC1)OC(=O)C1CCCCC1 (stereo partly drawn) [Compound 392, 1-((cyclohexanecarbonyl)oxy)propyl 4-(((trans)-4-(4-(trifluoromethoxy)phenyl)cyclohexyl)oxy)-1H-1,2,3-triazole-5-carboxylate]",0.1 to 1
5,"O=C(O)c1[nH]nnc1O[C@H]1CC[C@H](c2cc(Cl)ccc2OC(F)(F)F)CC1 [Compound 393, 4-(((trans)-4-(5-chloro-2-(trifluoromethoxy)phenyl)cyclohexyl)oxy)-1H-1,2,3-triazole-5-carboxylic acid]",< 0.1
6,"O=C(O)c1[nH]nnc1Oc1ccc(F)c(OCc2ccc(OC(F)(F)F)cc2)c1 [Compound 400, 4-(4-fluoro-3-((4-(trifluoromethoxy)benzyl)oxy)phenoxy)-1H-1,2,3-triazole-5-carboxylic acid 2,2,2-trifluoroacetate]",< 0.1
7,"O=C(O)c1[nH]nnc1SC1CCN(c2cc(OC(F)(F)F)ccc2Cl)CC1 [Compound 402, 4-((1-(2-chloro-5-(trifluoromethoxy)phenyl)piperidin-4-yl)thio)-1H-1,2,3-triazole-5-carboxylic acid]",< 0.1

# Same assay, conditions: Table 5; GO enzymatic assay; read-out: Range (range of IC50 values calculated from the enzymatic assays)
row,Structure (SMILES),IC50 [µM]
1,"O=C(O)c1[nH]nnc1OC(c1ccccc1)C(O)c1ccc(Cl)cc1 (stereo not drawn) [Compound 378, 4-(2-(4-chlorophenyl)-2-hydroxy-1-phenylethoxy)-1H-1,2,3-triazole-5-carboxylic acid]",0.1 to 1
2,"O=C(O)c1[nH]nnc1OC(Cc1ccc(Cl)cc1)Cc1ccc(-c2ccc(OC(F)(F)F)cc2)cc1 (stereo not drawn) [Compound 385, 4-((1-(4-chlorophenyl)-3-(4′-(trifluoromethoxy)-[1,1′-biphenyl]-4-yl)propan-2-yl)oxy)-1H-1,2,3-triazole-5-carboxylic acid 2,2,2-trifluoroacetate]",0.1 to 1
